# According to patent publication US9642922B2, “Caspase-triggered nano-aggregation probes and methods of use” (The Board of Trustees of the Leland Stanford Junior …, priority 2013, dated 2017):
# Numbered stars: 1 amine (or outer) side, 2 acyl side, 3 side chain; on linkers, the order of the positions; unused ones are H or OH. Square brackets hold non-standard residues; d marks the D form. Peptide text beside a SMILES is read from it. * marks the point of attachment. DOTA = O=C(O)CN1CCN(CC(=O)O)CCN(CC(=O)*)CCN(CC(=O)O)CC1; X1 = O=C(C1CSC(c2nc3ccc(N[*:1])cc3s2)=N1)[*:2]; X2 = N#Cc1ccc2cc(OCCCN*)ccc2n1; SEt = CCS*
# Tests used:
# apoptotic cells = experiment: Two-photon laser confocal microscopy of europium analogue in HeLa cells; format: cell-based, human; conditions: same conditions as probe 15 uptake
# caspase-3 level = experiment: Caspase-3 level in DOX-treated HeLa tumors; format: in vivo, mouse; conditions: 0.2 mg DOX intratumoral, 4 days
# Description: Mice were injected subcutaneously on the right shoulder with an estimated 1-2 million HeLa cells. The HeLa cells were allowed to establish a tumor xenograft and to grow to the size of 1 cm in diameter. A subset of the mice was treated with intratumoral injections of 0.2 mg (in 20 μL) doxorubicin. Four days later, the animals were killed, the tumors removed and quickly frozen using dry ice. The following day, tumors were cut into small pieces, weighted and 1 mL/g Riba buffer was added. They were kept on ice for 30 min and then homogenized with a sonicator (Bronson Sonifier 150). The lysed tumor solutions were centrifuged at 11,750×g for 15 min at 4° C. The supernatant was analyzed for caspase-3 activity using the CASPASE-GLO® kit (Promega) and for protein concentration using the standard BSA absorption assay.
# caspase-3 activity = experiment: Caspase-3 level in Dox-treated HeLa cells; format: cell-based, human; conditions: Dox 2 μM, 24 h
# Description: HeLa cells were incubated with different concentrations of doxorubicin (0, 1, 2 and 5 μM) and the cell/Tryp-LE solution was centrifuge at 11,750×g for 5 min, the supernatant was removed and 1 mL/g Riba buffer (Sigma) was added. The cells were left for 15 min on ice and homogenized with a sonicator (Bronson Sonifier 150) and the suspension was analyzed for Caspase-3 activity with a CASPASE-GLO® kit from Promega.
# PET tracer 1 was applied to detect caspase-3 in apoptotic cells in vitro. HeLa cells were incubated with doxorubicin (Dox) (2 μM) for 24 h to induce apoptosis. […] Both Dox-treated and non-treated cells were then incubated with 1 for 4 h.
# caspase-3/7 activity = experiment: CASPASE-GLO 3/7 assay in saline- and 3×DOX-treated tumor lysates; format: in vivo, mouse; conditions: 3×DOX 8 mg/kg i.v.
# Description: HeLa tumor xenografted mice were treated with saline or 3×DOX (8 mg/Kg). After treatment, the mice were sacrificed, and the tumors were resected and lysed with RIPA buffer (1 g tissue/1 ml buffer). The solution was homogenized for 1 min on ice, three times. The lysed solution was kept on ice for another 30 min, and centrifuged at 14,000×g for 30 min at 4° C. The supernatant was collected, and the protein concentration was measured using Bradford assay with BSA as standard. The caspase-3/7 activity in the lysed solution was measured by CASPASE-GLO® 3/7 assay, and normalized to the protein concentration.
# HeLa tumor xenograft = experiment: Tumor size monitoring in HeLa xenograft chemotherapy model; format: in vivo, mouse; conditions: 3×DOX 8 mg/kg i.v.
# Description: (§1) To establish tumors in 6-week-old female nu/nu mice, 2×10^6 HeLa cells suspended in 50 μL of a 50% v/v mixture of Matrigel in supplemented DMEM (10% FBS, 1% penstrep) were injected subcutaneously in the shoulders of the mouse. Tumors were grown until a single aspect was 0.7 to 0.9 cm (approximately 10-15 days), and then treatment consisting of 8 mg/kg DOX or saline was initiated. Treatments were administered intravenously once every 4 d for a total of three times. Total mouse body weight and tumor size (width and length by caliper) was measured every other day. Tumor volumes were calculated assuming ellipsoid shape with the formula (l×w^2)/2.
# [1] = mouse, in vivo, iv
# caspase-3 = target: T1, caspase-3 (Homo sapiens, UniProt P42574); experiment: HPLC assay of caspase-3-triggered macrocyclization of C-SNAF; format: biochemical; set-up: purchased Sigma; host or cells: E. coli; conditions: same conditions as C-SNAF; D-ctrl after 24 h
# T1 sequence (P42574 29-175 limits assumed): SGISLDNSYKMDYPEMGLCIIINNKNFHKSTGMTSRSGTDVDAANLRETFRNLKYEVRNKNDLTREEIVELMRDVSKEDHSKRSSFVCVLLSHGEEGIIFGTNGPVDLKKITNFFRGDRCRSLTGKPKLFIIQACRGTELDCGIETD
# T1 sequence (P42574 176-277 limits assumed): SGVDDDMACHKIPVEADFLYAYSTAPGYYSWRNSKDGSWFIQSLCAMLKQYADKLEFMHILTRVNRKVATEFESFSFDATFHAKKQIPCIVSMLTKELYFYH
# Description: The progression of caspase-3-triggered macrocyclization of C-SNAF to form C-SNAF-cycl in solution was monitored using high-performance liquid chromatography (HPLC) following incubation of the probe (25 μM) with recombinant human caspase-3 (4.9×10^−[…]).
# Caspase (human, recombinant from E. coli) assays were performed for caspase-3 (4.9×10^−3 U; 7.35×10^−4 mg, Sigma), −7 (18.3 U; 7.35×10^−4 mg, Calbiochem), and −9 (0.3 U; 7.35×10^−4 mg, Calbiochem). All caspase assays were conducted in caspase buffer with 50 mM HEPES, 100 mM NaCl, 1 mM EDTA, 10 mM TCEP, 10% glycerol, and 0.1% CHAPS at pH 7.4. Cathepsin B (human liver; 0.27 U; 7.35×10^−4 mg, Calbiochem) and Legumain (human, recombinant from mouse myeloma cell line; >250 pmol/min/μg; 7.35×10^−4 mg, R&D Systems) were conducted in reaction buffer with 50 mM sodium acetate, 50 mM NaCl, 0.5 mM EDTA and 10 mM TCEP at pH 5.5. C-SNAF was diluted in the respective enzyme reaction buffer (25 μM, 1 mL) and remained at room temperature for 10 min, to which was then added the respective enzymes. Reactions were performed at 37° C., and monitored by HPLC hourly. The percentage conversion of the reaction was calculated based on the percentage of peak area of C-SNAF-cycl in the HPLC trace at 675 nm UV detection, which indicated the efficacy of enzyme cleavage of C-SNAF.
# apoptotic HeLa cells = experiment: Epifluorescence microscopy of apoptotic HeLa cells labeled with probes; format: cell-based, human; conditions: microscopy, 2 μM probe
# Description: After removal of the medium, the cells were incubated with C-SNAF, L-ctrl, or D-ctrl at 2 μM for 24 h. Some cells were first incubated with caspase inhibitor (Z-VAD-fmk, 50 μM) for 30 min, followed by incubating with 2 μM C-SNAF for 24 h. The cells were carefully washed with PBS (1×) three times, and stained with Hoechst 33342 (2 μM) at 37° C. for 30 min. After rinses with PBS (1×) several times, the medium was replaced and the fluorescence images were acquired with DAPI and Cy5.5 filters. The images were processed using the standard CRi Nuance software, analyzed using Image J software package (NIH), and presented at the same intensity scale for comparison.
# HeLa cells in #1.5 borosilicate 8-well chambered coverslips (Nunc) were either incubated with C-SNAF (2 μM) alone or co-incubated with DOX (1, 2, and 5 μM) and 2 μM C-SNAF, 2 μM C-SNAF together with caspase inhibitor (Z-VAD-fmk, 50 μM), or control probes D-ctrl and L-ctrl at 2 μM for 24 h. Then the medium was removed, the cells were carefully washed with PBS (1×) three times, and stained with nuclear binding probe Hoechst 33342 (2 μM) at 37° C. for 30 min. After several rinses with PBS (1×), the medium was replaced and the fluorescence images were acquired with DAPI and […] filters.
# [2] = system: STS-induced apoptotic HeLa cells; experiment: Flow cytometry of STS-induced apoptotic HeLa cells labeled with probes; format: cell-based, human; conditions: 2 μM probe, compared with C-SNAF
# Description: Approximately 10^5 HeLa cells in 1 mL DMEM medium were seeded onto 12-well plates. […] For the inhibitor blocking experiment, the STS-treated cells were first incubated with the caspase inhibitor Z-VAD-fmk (50 μM, R&D Systems) for 30 min, and then 2 μM C-SNAF was added. All cells incubations were 24 h, followed by staining with FLICA (FAM) after trypsinization. After washing with PBS (1×) three times, the cell pellets were resuspended in 300 μL PBS and applied for flow cytometry analysis using the FITC and Cy5.5 channels. The cell number for each flow cytometry analysis was approximately 5000 to 10000, and the data was processed using FlowJo software.
# subcutaneous HeLa tumors = experiment: In vivo fluorescence imaging of DOX-treated HeLa tumor-bearing mice; set-up: species or system mouse
# Description: C-SNAF or either of the control probes (5 nmol) was administered intravenously to tumor-bearing mice and whole animal fluorescence was longitudinally monitored using a Maestro fluorescence imager.
# as §1
# Two days following the final treatment, 5 nmol probe in saline was injected intravenously and fluorescence imaging began immediately on a Maestro hyperspectral fluorescent imaging system (PerkinElmer, Mass., USA) using a 635±25 nm excitation filter and a 675 nm long-pass emission filter, with images acquired from 670 to 900 nm. Tissue autofluorescence and Cy5.5 fluorescence were deconvolved, and tumor fluorescence intensity was quantified by region of interest measurement using Nuance v.3.0.1.2 software (Perkin Elmer, Mass., USA).
smiles,measurement,setting,value
CCSSCC(NC(=O)C(CC(=O)O)NC(=O)C(NC(=O)C(CCC(=O)O)NC(=O)C(CC(=O)O)NC(C)=O)C(C)C)C(=O)NC(CCCCNC(=O)CN1CCN(CC(=O)[O-])CCN(CC(=O)[O-])CCN(CC(=O)[O-])CC1)C(=O)Nc1ccc2nc(C3=NC(C(=O)NCCCOc4ccc5nc(C#N)ccc5c4)CS3)sc2c1.[Eu+3] (stereo not drawn) [1-Eu^3+ (16)] (Ac-DEVDC(SEt)K(DOTA)[X1]-X2; configuration not given here),fluorescent signal in apoptotic cells,apoptotic cells,strong fluorescent signal in apoptotic cells
"COc1cccc2c1C(=O)c1c(O)c3c(c(O)c1C2=O)C[C@@](O)(C(=O)CO)C[C@@H]3O[C@H]1C[C@H](N)[C@H](O)[C@H](C)O1 [DOX, doxorubicin]",increase of caspase-3 level in treated tumors,caspase-3 level,1.9 fold
same,caspase-3 activity of lysates of treated versus non-treated cells,caspase-3 activity,9.5 fold
same,increase in caspase-3/7 activity in tumor lysates versus saline,caspase-3/7 activity,approximately 2 fold
same,tumor growth rate relative to saline,HeLa tumor xenograft,significant decrease in tumor growth rates
CC[N+]1=C(C=CC=CC=C2N(CCCCCC(=O)NCCCCC(NC(=O)C(CSC)NC(=O)C(CC(=O)O)NC(=O)C(NC(=O)C(CCC(=O)O)NC(=O)C(CC(=O)O)NC(C)=O)C(C)C)C(=O)Nc3ccc4nc(C5=NC(C(=O)NCCCOc6ccc7ncccc7c6)CS5)sc4c3)c3ccc4c(S(=O)(=O)O)cc(S(=O)(=O)O)cc4c3C2(C)C)C(C)(C)c2c1ccc1c(S(=O)(=O)O)cc(S(=O)(=O)[O-])cc21 [L-ctrl],blood half-life,[1],30 ± 16.8 min
same,products observed after incubation with caspase-3,caspase-3,only the caspase-3-mediated DEVD-cleavage hydrolysis product
same,fluorescence of apoptotic cells compared to C-SNAF,apoptotic HeLa cells,relatively weaker fluorescence
same,fluorescent intensity of apoptotic cells incubated with control probes,[2],much lower fluorescent intensity
same,correlation (r) of maximum tumor fluorescence with maximum tumor size change,"subcutaneous HeLa tumors; 3×DOX-treated mice, 1 h after probe",no significant correlation
same,average signal enhancement between DOX- and saline-treated tumors,subcutaneous HeLa tumors; 4 h after probe administration,0.24%
same,tumor fluorescence lower than that of C-SNAF,"subcutaneous HeLa tumors; DOX-treated mice, 1 h",18%
